According to patent US20260274895A1, “DE NOVO DESIGNED MEMBRANE-TRAVERSING AND ORALLY BIOAVAILABLE MACROCYCLES” (UNIVERSITY OF WASHINGTON, priority 2022, published 2026):
Where a SMILES comes first, the peptide text is derived from it. [ ]: non-standard residue; d: D form. NMeF = CN[C@@H](Cc1ccccc1)C(=O)O; NMeI = CC[C@H](C)[C@H](NC)C(=O)O; dNMeF = CN[C@H](Cc1ccccc1)C(=O)O; NMeL = CN[C@@H](CC(C)C)C(=O)O; dNMeL = CN[C@H](CC(C)C)C(=O)O; NMeV = CN[C@H](C(=O)O)C(C)C; NMeA = CN[C@@H](C)C(=O)O; dNMeA = CN[C@H](C)C(=O)O; Sar = CNCC(=O)O

Conditions: not given

| membrane permeability in PAMPA (in words) | SMILES |
| --- | --- |
| significant permeability | CC(C)C[C@@H]1NC(=O)[C@H]2CCCN2C(=O)[C@H](CC(C)C)N(C)C(=O)[C@@H](C(C)C)NC(=O)[C@H](CC(C)C)NC(=O)[C@H]2CCCN2C(=O)[C@H](CC(C)C)N(C)C(=O)[C@@H](C(C)C)NC1=O [Design D8.21, v*LpLv*LpL] (cyclo(L[dV][NMeL][dP]L[dV][NMeL][dP])) |
| significant permeability | CC(C)C[C@@H]1NC(=O)[C@H]2CCCN2C(=O)[C@@H](CC(C)C)NC(=O)[C@@H](CC(C)C)NC(=O)[C@@H](CC(C)C)N(C)C(=O)[C@H](C(C)C)NC(=O)[C@@H](C)NC(=O)[C@@H](C)N(C)C(=O)[C@@H]2CCCN2C1=O [Design D9.16, P*aaV*lllpL] (cyclo(LP[dNMeA][dA]V[dNMeL][dL][dL][dP])) |
| membrane permeable | CC(C)C[C@@H]1C(=O)N[C@H](C(C)C)C(=O)N[C@H](C)C(=O)N2CCC[C@@H]2C(=O)N(C)[C@H](CC(C)C)C(=O)N[C@H](C(C)C)C(=O)N[C@H](C)C(=O)N2CCC[C@@H]2C(=O)N1C [Design D8.31, ap*lvap*lv] (cyclo([dA][dP][dNMeL][dV][dA][dP][dNMeL][dV])) |

Same assay, conditions: PAMPA

| PAMPA_Papp_Avg (apparent permeability) [×10⁻⁶ cm/s] | SMILES |
| --- | --- |
| 0.824 | CC(C)C[C@@H]1C(=O)N[C@H](C)C(=O)N(C)[C@H](CC(C)C)C(=O)N2CCC[C@@H]2C(=O)N[C@H](CC(C)C)C(=O)N[C@@H](C)C(=O)N[C@H](CC(C)C)C(=O)N2CCC[C@@H]2C(=O)N1C [Design D8.25, lp*la*lplA] (cyclo(A[dL][dP][dNMeL][dA][dNMeL][dP][dL])) |
| 0.24 | CC(C)C[C@@H]1NC(=O)[C@H](Cc2ccccc2)N(C)C(=O)[C@H]2CCCN2C(=O)[C@@H](CC(C)C)NC(=O)[C@@H](CC(C)C)NC(=O)[C@H](C)NC(=O)[C@H]2CCCN2C(=O)[C@@H]2CCCN2C(=O)[C@@H](C(C)C)NC1=O [Design D9.32, pAllp*FLvP] (cyclo(A[dL][dL][dP][NMeF]L[dV]P[dP])) |
| 12.2 | CC[C@@H](C)[C@H]1NC(=O)[C@@H](Cc2ccccc2)N(C)C(=O)[C@@H]2CCCN2C(=O)[C@@H]([C@H](C)CC)NC(=O)[C@@H](Cc2ccccc2)N(C)C(=O)[C@@H]2CCCN2C1=O [Design D6.2, iP*fiP*f] (cyclo(P[dNMeF][dI]P[dNMeF][dI])) |
| 0.141 | CC[C@@H](C)[C@H]1NC(=O)[C@@H](CC(C)C)NC(=O)[C@@H]2CCCN2C(=O)[C@H]2CCCN2C(=O)[C@@H](C(C)C)NC(=O)[C@H](C)NC(=O)[C@@H]2CCCN2C(=O)[C@@H]([C@H](C)CC)NC(=O)[C@@H](C)N(C)C1=O [Design D9.23, i*aiPAVpPl] (cyclo([dL][dI][dNMeA][dI]PA[dV][dP]P)) |
| 6.36 | CC[C@H](C)[C@H]1C(=O)N[C@H](C)C(=O)N[C@@H](CC(C)C)C(=O)N[C@@H](C(C)C)C(=O)N2CCC[C@@H]2C(=O)N(C)[C@@H](CC(C)C)C(=O)N[C@@H](C(C)C)C(=O)N2CCC[C@H]2C(=O)N(C)[C@H](CC(C)C)C(=O)N[C@@H](C(C)C)C(=O)N1C [Design D10.19, aLVp*LVP*lV*I] (cyclo(LV[dP][NMeL]VP[dNMeL]V[NMeI][dA])) |
| 2.16 | CC[C@H](C)[C@@H]1NC(=O)[C@@H](C(C)C)NC(=O)[C@H](CC(C)C)N(C)C(=O)[C@H]2CCCN2C(=O)[C@H]2CCCN2C(=O)[C@H](C(C)C)NC(=O)[C@@H](CC(C)C)NC(=O)[C@H]2CCCN2C1=O [Design D8.16, plVpp*LvI] (cyclo(I[dP][dL]V[dP][dP][NMeL][dV])) |
| 0.189 | CC(C)C[C@@H]1NC(=O)[C@@H]2CCCN2C(=O)[C@H]2CCCN2C(=O)[C@@H](C)N(C)C(=O)[C@@H](CC(C)C)N(C)C(=O)[C@H](C(C)C)NC(=O)[C@@H](C)N(C)C(=O)[C@H]2CCCN2C(=O)[C@@H]2CCCN2C1=O [Design D9.22, p*aV*l*apPLP] (cyclo(LP[dP][dNMeA]V[dNMeL][dNMeA][dP]P)) |
| 5.69 | CC[C@H](C)[C@@H]1NC(=O)[C@@H](C(C)C)NC(=O)[C@@H](CC(C)C)N(C)C(=O)[C@H]2CCCN2C(=O)[C@@H](CC(C)C)NC(=O)[C@@H](CC(C)C)N(C)C(=O)[C@H](CC(C)C)NC(=O)[C@H]2CCCN2C(=O)[C@H](C)N(C)C(=O)[C@H]2CCCN2C1=O [Design D10.41, p*lvIp*ApL*ll] (cyclo(I[dP][NMeA][dP]L[dNMeL][dL][dP][dNMeL][dV])) |
| 0.317 | CC[C@H](C)[C@@H]1NC(=O)CNC(=O)[C@@H]2CCCN2C(=O)[C@H]2CCCN2C(=O)[C@H]([C@@H](C)CC)NC(=O)[C@@H](C)N(C)C(=O)[C@@H]2CCCN2C(=O)[C@H](C(C)C)NC(=O)[C@@H](CC(C)C)NC1=O [Design D9.33, pPGIlVP*aI] (cyclo(GI[dL]VP[dNMeA]I[dP]P)) |
| 1.74 | CC(C)C[C@@H]1C(=O)N[C@H](C(C)C)C(=O)N(C)[C@@H](C(C)C)C(=O)N2CCC[C@H]2C(=O)N2CCC[C@@H]2C(=O)N[C@@H](C)C(=O)N(C)[C@@H](Cc2ccccc2)C(=O)N(C)[C@H](CC(C)C)C(=O)N[C@H](C)C(=O)N1C [Design D9.17, pA*F*la*lv*VP] (cyclo(A[NMeF][dNMeL][dA][dNMeL][dV][NMeV]P[dP])) |
| 0.71 | CC(C)C[C@H]1NC(=O)[C@@H](C(C)C)NC(=O)[C@H](CC(C)C)N(C)C(=O)[C@@H](Cc2ccccc2)NC(=O)[C@H](CC(C)C)N(C)C(=O)[C@H]2CCCN2C(=O)[C@@H]2CCCN2C(=O)[C@H]2CCCN2C(=O)[C@@H](C(C)C)NC(=O)[C@H]2CCCN2C1=O [Design D10.42, vlpvpPp*Lf*L] (cyclo([dP][NMeL][dF][NMeL][dV][dL][dP][dV][dP]P)) |
| 3.05 | CC(C)C[C@@H]1NC(=O)[C@@H](CC(C)C)N(C)C(=O)[C@@H]2CCCN2C(=O)[C@H](CC(C)C)N(C)C(=O)[C@@H](C)NC(=O)[C@@H](CC(C)C)N(C)C(=O)[C@@H]2CCCN2C(=O)CN(C)C(=O)[C@H](CC(C)C)N(C)C(=O)[C@H](Cc2ccccc2)NC1=O [Design D10.57, *L*GP*la*LP*lLF] (cyclo(F[NMeL][Sar]P[dNMeL][dA][NMeL]P[dNMeL]L)) |
| 0.826 | CC[C@H](C)[C@@H]1NC(=O)[C@@H](CC(C)C)N(C)C(=O)[C@H](CC(C)C)N(C)C(=O)[C@@H](C)N(C)C(=O)[C@@H](Cc2ccccc2)NC(=O)[C@H](C(C)C)NC(=O)[C@@H](C)NC(=O)[C@@H]2CCCN2C(=O)[C@H]2CCCN2C1=O [Design D9.10, Vf*a*L*lIpPa] (cyclo([dA]V[dF][dNMeA][NMeL][dNMeL]I[dP]P)) |
| 1.12 | CC[C@H](C)[C@@H]1NC(=O)[C@H]2CCCN2C(=O)[C@@H]2CCCN2C(=O)[C@H](C(C)C)NC(=O)[C@@H](C(C)C)NC(=O)[C@H](Cc2ccccc2)N(C)C(=O)[C@H]2CCCN2C(=O)[C@@H](CC(C)C)N(C)C(=O)[C@@H](CC(C)C)NC1=O [Design D9.42, pIl*lp*FvVP] (cyclo(I[dL][dNMeL][dP][NMeF][dV]VP[dP])) |
| 2.81 | CC[C@@H](C)[C@H]1NC(=O)[C@@H](CC(C)C)NC(=O)[C@H](C(C)C)NC(=O)[C@@H](CC(C)C)N(C)C(=O)[C@@H]2CCCN2C(=O)[C@H](C)NC(=O)[C@H](CC(C)C)N(C)C(=O)[C@H]2CCCN2C(=O)[C@H](C)N(C)C(=O)[C@@H](CC(C)C)N(C)C(=O)[C@@H]2CCCN2C1=O [Design D11.5, AP*lVliP*l*Ap*L] (cyclo(AP[dNMeL]V[dL][dI]P[dNMeL][NMeA][dP][NMeL])) |
| 3.37 | CC[C@@H](C)[C@H]1NC(=O)[C@H]2CCCN2C(=O)[C@H]([C@@H](C)CC)NC(=O)[C@H](CC(C)C)N(C)C(=O)[C@H]2CCCN2C(=O)[C@@H]2CCCN2C(=O)[C@H](Cc2ccccc2)N(C)C(=O)[C@H](Cc2ccccc2)NC(=O)[C@H]([C@@H](C)CC)NC1=O [Design D9.13, piIF*FPp*LI] (cyclo(F[NMeF]P[dP][NMeL]I[dP][dI]I)) |
| 1.99 | CC(C)C[C@H]1NC(=O)[C@@H]2CCCN2C(=O)[C@@H]2CCCN2C(=O)[C@@H](C)NC(=O)[C@@H](Cc2ccccc2)NC(=O)[C@H]2CCCN2C1=O [Design D6.3, pfaPpl] (cyclo(PP[dL][dP][dF][dA])) |
| 1.9 | CC[C@H](C)[C@@H]1NC(=O)[C@@H](CC(C)C)NC(=O)[C@@H](C)N(C)C(=O)[C@H](Cc2ccccc2)NC(=O)[C@@H](CC(C)C)NC(=O)[C@@H](C)N(C)C(=O)[C@@H]2CCCN2C(=O)[C@H](C(C)C)NC(=O)[C@H]2CCCN2C(=O)[C@@H]2CCCN2C1=O [Design D10.31, F*alIPpVP*al] (cyclo(F[dNMeA][dL]IP[dP]VP[dNMeA][dL])) |
| 0.441 | CC(C)C[C@@H]1C(=O)N(C)[C@H](C)C(=O)N(C)[C@@H](C(C)C)C(=O)N2CCC[C@@H]2C(=O)N[C@H](C)C(=O)N[C@@H](Cc2ccccc2)C(=O)N2CCC[C@@H]2C(=O)N2CCC[C@H]2C(=O)N[C@H](C(C)C)C(=O)N[C@@H](C(C)C)C(=O)N1C [Design D10.29, FpPvV*l*a*Vpa] (cyclo([dV]V[dNMeL][dNMeA][NMeV][dP][dA]F[dP]P)) |
| 1.04 | CC[C@@H](C)[C@H]1NC(=O)[C@@H]2CCCN2C(=O)[C@@H](CC(C)C)N(C)C(=O)[C@@H](C(C)C)NC(=O)[C@@H]2CCCN2C(=O)[C@@H](CC(C)C)N(C)C(=O)[C@H](C)N(C)C(=O)[C@@H](C)NC1=O [Design D8.18, ia*A*lPv*lP] (cyclo([NMeA][dNMeL]P[dV][dNMeL]P[dI][dA])) |
| 1.23 | CC(C)C[C@@H]1C(=O)N[C@H](CC(C)C)C(=O)N2CCC[C@@H]2C(=O)N2CCC[C@@H]2C(=O)N(C)[C@@H](C)C(=O)N[C@H](Cc2ccccc2)C(=O)N[C@@H](C)C(=O)N(C)[C@@H](CC(C)C)C(=O)N1C [Design D8.10, pp*AfA*L*ll] (cyclo(A[NMeL][dNMeL][dL][dP][dP][NMeA][dF])) |
| 1.28 | CC(C)C[C@@H]1NC(=O)[C@@H](CC(C)C)NC(=O)[C@@H](CC(C)C)N(C)C(=O)[C@@H](CC(C)C)N(C)C(=O)[C@H](C(C)C)NC(=O)[C@@H](C)N(C)C(=O)[C@@H]2CCCN2C(=O)[C@@H]2CCCN2C(=O)[C@@H](C)N(C)C1=O [Design D9.19, P*aV*l*llL*aP] (cyclo(L[dNMeA]PP[dNMeA]V[dNMeL][dNMeL][dL])) |
